The series in a line: Evans blue penetration after blood-brain barrier opening by ultrasound and microbubbles. In kind it is in vivo, BALB/c nude mice. The procedure:
To derive the optimal ultrasound conditions for opening the blood-brain barrier (BBB), the degree of opening of the blood-brain barrier was compared and analyzed using Evans blue. Evans blue is a very small dye with a molecular weight of 961 Da and is widely used for analyzing the degree of opening of the blood-brain barrier. The experiment was performed using normal BALB/c nude mice, and after injecting microbubbles via intravenous injection, ultrasound was emitted using a high-intensity focused ultrasound device, VIFU2000. […] The brain tissue was soaked in formamide, incubated overnight at 70° C. to extract Evans blue in the brain tissue, and the degree of opening of the blood-brain barrier was quantitatively analyzed by measuring the absorbance at wavelengths of 670 nm and 740 nm using UV-vis.
Factors that can affect the cavitation of ultrasound and microbubbles, a mechanism that opens the blood-brain barrier, include ultrasound conditions such as the frequency, intensity, duty cycle, and ultrasound emission time of the ultrasound, and also the number of microbubbles. Therefore, to confirm the ultrasound conditions and the number of microbubbles that can open the blood-brain barrier, the degree of opening of the blood-brain barrier according to the number of microbubbles was first quantitatively analyzed. […]

The structures appear in SMILES notation.

On to `Cc1cc(-c2ccc(/N=N/c3ccc4c(S(=O)(=O)O)cc(S(=O)(=O)O)c(N)c4c3O)c(C)c2)ccc1/N=N/c1ccc2c(S(=O)(=O)O)cc(S(=O)(=O)O)c(N)c2c1O` [Evans blue], for which the “Penetration efficiency into brain depending on number of microbubbles” value (1 MHz, 1 W, DC 5%, PRF 1 Hz, 60 s, 2, 5, 10 × 10^6/g microbubbles, brain 24 hours later) is “improving the penetration efficiency of Evans blue”. For the setting “microbubbles 5×10^6/g, 1-3 W, duty cycle 1-10%, 60-180 s”, the “Penetration effect into brain depending on ultrasound intensity and emission time” value is “increased proportionally”.
